{
  "source": "patent US9161993B2",
  "about": "“Charge triggering of self-organized nanoparticles” (Danmarks Tekniske Universitet, priority 2011, dated 2015)",
  "biological_target": "Thermolysin (Bacillus thermoproteolyticus, UniProt P00800)",
  "sequence (P00800 233-548, species assumed)": "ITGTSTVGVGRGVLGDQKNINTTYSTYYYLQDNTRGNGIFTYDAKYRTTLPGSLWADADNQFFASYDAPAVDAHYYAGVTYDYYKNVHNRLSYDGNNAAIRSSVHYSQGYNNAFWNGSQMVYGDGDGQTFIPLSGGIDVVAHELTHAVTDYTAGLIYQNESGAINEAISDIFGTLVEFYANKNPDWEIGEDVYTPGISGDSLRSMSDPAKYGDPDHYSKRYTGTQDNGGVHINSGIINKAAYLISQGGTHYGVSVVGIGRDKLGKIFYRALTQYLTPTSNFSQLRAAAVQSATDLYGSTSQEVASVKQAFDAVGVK",
  "conditions": "liposomes exposing RJ111; linker Trp-Ile-Pro-Val-Ser-Leu-Arg-Ser-Gly",
  "procedure": "The size and ζ-potential (zeta potential) of RJ111 formulated liposomes were measured before and after enzymatic cleavage of the RJ111 peptide linker using Thermolysin as a model enzyme. RJ111 formulated liposomes were mixed with a buffered solution of Thermolysine yielding final concentrations of: 2.2 mM lipid (220 μM RJ111), 220 μg/ml Thermolysine, 1 uM, ZnCl2 0.5 mM CaCl2, 30 mM HEPES and 125 mM NaCl. The reaction mixtures containing Thermolysine and RJ111 formulated in liposomes were heated to 37° C. for a period of 12 hours and the size and ζ-potential were subsequently measured in an equi-osmolar solution of 300 mM Glucose, 10 mM HEPES (pH 7.4) and 1 mM CaCl2. The ζ-potential and size of the non-cleaved RJ111 formulations were measured (ZetaPALS, Brookhaven Instruments Corp., Holtsville, N.Y., USA) in an equi-osmolar solution of 300 mM Glucose, 10 mM HEPES (pH 7.4) and 1 mM CaCl2.",
  "data": [
    {"substance": "(C14)2-dap-Trp-Ile-Pro-Val-Ser-Leu-Arg-Ser-Gly-Glu-Glu-Glu-Glu-PEG2000-OH [RJ111]", "values": [
      {"measurement": "cleavage of peptide linker by Thermolysine", "value": "efficiently was cleaved"}
    ]}
  ]
}
